Where two headings read alike, the source gives them in different places.
Columns and labels:
[1] = target: T1, MMP-8 (Homo sapiens, UniProt P22894); assay: MMP inhibition assay, fluorogenic substrate FS-6; assay type: biochemical; conditions: MMP-8 1.5 nM, inhibitor incubated 4 h at 25° C., substrate Mca-Lys-Pro-Leu-Gly-Leu-Dap(Dnp)-Ala-Arg-NH2 2 μM
T1 construct: purchased Calbiochem
Protocol: (§1) As reported therein, the inhibitory activity of the compounds of the invention was evaluated on the known fluorogenic substrate (Mca-Lys-Pro-Leu-Gly-Leu-Dpa-Ala-Arg-NH2), shortly referred to as FS-6 (see, as a reference, U. Neumann, Analytical Biochem. 2004, 328, 166-173).
(§2) Recombinant human progelatinase A (pro-MMP-2) and B (pro-MMP-9) from transfected mouse myeloma cells, MMP-16 and MMP-14 catalytic domains were supplied by Prof. Gillian Murphy (Department of Oncology, University of Cambridge, UK). Pro-MMP-1, pro-MMP-8, pro-MMP-3 and pro-MMP-13 were purchased from Calbiochem, MMP-12 was furnished from RDSystems.
(§3) Pro-MMP-3 was activated with trypsin 5 μg/mL for 30 min at 37 C.° followed by soybean trypsin inhibitor (SBTI) 62 μg/mL.
(§4) For assay measurements, the inhibitor stock solutions (DMSO, 100 mM) were further diluted, at 7 different concentrations (0.01 nM-300 μM) for each MMP in the fluorimetric assay buffer (FAB: Tris 50 mM, pH=7.5, NaCl 150 mM, CaCl2 10 mM, Brij 35 0.05% and DMSO 1%). Activated enzyme (final concentration 2.9 nM for MMP-2, 2.7 nM for MMP-9, 1.5 nM for MMP-8, 0.3 nM for MMP-13, 5 nM for MMP-3, 1 nM for MMP-14cd, 15 nM for MMP-16cd and 2.0 nM for MMP-1, 1 nM for MMP12) and inhibitor solutions were incubated in the assay buffer for 4 h at 25° C. After the addition of 200 μM solution of the fluorogenic substrate Mca-Arg-Pro-Lys-Pro-Val-Glu-Nva-Trp-Arg-Lys(Dnp)-NH2 (Sigma) for MMP-3 and Mca-Lys-Pro-Leu-Gly-Leu-Dap(Dnp)-Ala-Arg-NH2 (Bachem) (Neumann, U.; Kubota, H.; Frei, K.; Ganu, V.; Leppert, D. Anal. Biochem. 2004, 328, 166) for all the other enzymes in DMSO (final concentration 2 μM), the hydrolysis was monitored every 15 sec. for 20 min. recording the increase in fluorescence (λex=325 nm, λem=395 nm) using a Molecular Device SpectraMax Gemini XS plate reader. The assays were performed in triplicate in a total volume of 200 μl per well in 96-well microtitre plates (Corning, black, NBS). Control wells lack inhibitor. The MMP inhibition activity was expressed in relative fluorescent units (RFU). Percent of inhibition was calculated from control reactions without the inhibitor. IC50 was determined using the formula: Vi/Vo=1/(1+[I]/IC50), where Vi is the initial velocity of substrate cleavage in the presence of the inhibitor at concentration [I] and Vo is the initial velocity in the absence of the inhibitor. Results were analyzed using SoftMax Pro software and GraFit software.

[2] = target: T2, MMP-9 (Homo sapiens, UniProt P14780); assay: MMP inhibition assay, fluorogenic substrate FS-6; assay type: biochemical; conditions: MMP-9 2.7 nM, inhibitor incubated 4 h at 25° C., substrate Mca-Lys-Pro-Leu-Gly-Leu-Dap(Dnp)-Ala-Arg-NH2 2 μM
T2 construct: purchased supplied by Prof; Gillian Murphy (Department of Oncology, University of Cambridge, UK); host or cells: transfected mouse myeloma cells
Protocol: as §1, §2, §3, §4

[3] = target: T3, MMP-16 catalytic domain (Homo sapiens, UniProt P51512); assay: MMP inhibition assay, fluorogenic substrate FS-6; assay type: biochemical; conditions: MMP-16cd 15 nM, inhibitor incubated 4 h at 25° C., substrate Mca-Lys-Pro-Leu-Gly-Leu-Dap(Dnp)-Ala-Arg-NH2 2 μM
T3 construct: MMP-16 and MMP-14 catalytic domains were supplied by Prof; Gillian Murphy; purchased supplied by Prof; Gillian Murphy (Department of Oncology, University of Cambridge, UK)
Protocol: as §1, §2, §4

[4] = target: T4, MMP-12 (Homo sapiens, UniProt P39900); assay: MMP inhibition assay, fluorogenic substrate FS-6; assay type: biochemical; conditions: MMP12 1 nM, inhibitor incubated 4 h at 25° C., substrate Mca-Lys-Pro-Leu-Gly-Leu-Dap(Dnp)-Ala-Arg-NH2 2 μM
T4 construct: purchased RDSystems
Protocol: as §1, §2, §4

[5] = target: T5, MMP-3 (Homo sapiens, UniProt P08254); assay: MMP inhibition assay, fluorogenic substrate; assay type: biochemical; conditions: MMP-3 5 nM, inhibitor incubated 4 h at 25° C., substrate Mca-Arg-Pro-Lys-Pro-Val-Glu-Nva-Trp-Arg-Lys(Dnp)-NH2
T5 construct: purchased Calbiochem
Protocol: as §2, §3
as §4, with “The MMP inhibition activity was expressed in relative fluorescent units (RFU).” left out

[6] = target: MMP-13 (Homo sapiens, UniProt P45452); assay: MMP inhibition assay, fluorogenic substrate FS-6; assay type: biochemical; conditions: MMP-13 0.3 nM, inhibitor incubated 4 h at 25° C., substrate Mca-Lys-Pro-Leu-Gly-Leu-Dap(Dnp)-Ala-Arg-NH2 2 μM
Protocol: as §1, §2, §3, §4

[7] = target: T6, MMP-14 catalytic domain (Homo sapiens, UniProt P50281); assay: MMP inhibition assay, fluorogenic substrate FS-6; assay type: biochemical; conditions: MMP-14cd 1 nM, inhibitor incubated 4 h at 25° C., substrate Mca-Lys-Pro-Leu-Gly-Leu-Dap(Dnp)-Ala-Arg-NH2 2 μM
T6 construct: MMP-16 and MMP-14 catalytic domains were supplied by Prof; Gillian Murphy; purchased supplied by Prof; Gillian Murphy (Department of Oncology, University of Cambridge, UK)
Protocol: as §1, §2, §4

[8] = target: T7, MMP-2 (Homo sapiens, UniProt P08253); assay: MMP inhibition assay, fluorogenic substrate FS-6; assay type: biochemical; set-up: purchased supplied by Prof; Gillian Murphy (Department of Oncology, University of Cambridge, UK); host or cells: transfected mouse myeloma cells; conditions: activated pro-MMP-2 2.9 nM, inhibitor incubated 4 h at 25° C., substrate Mca-Lys-Pro-Leu-Gly-Leu-Dap(Dnp)-Ala-Arg-NH2 2 μM
T7 sequence (P08253 110-660): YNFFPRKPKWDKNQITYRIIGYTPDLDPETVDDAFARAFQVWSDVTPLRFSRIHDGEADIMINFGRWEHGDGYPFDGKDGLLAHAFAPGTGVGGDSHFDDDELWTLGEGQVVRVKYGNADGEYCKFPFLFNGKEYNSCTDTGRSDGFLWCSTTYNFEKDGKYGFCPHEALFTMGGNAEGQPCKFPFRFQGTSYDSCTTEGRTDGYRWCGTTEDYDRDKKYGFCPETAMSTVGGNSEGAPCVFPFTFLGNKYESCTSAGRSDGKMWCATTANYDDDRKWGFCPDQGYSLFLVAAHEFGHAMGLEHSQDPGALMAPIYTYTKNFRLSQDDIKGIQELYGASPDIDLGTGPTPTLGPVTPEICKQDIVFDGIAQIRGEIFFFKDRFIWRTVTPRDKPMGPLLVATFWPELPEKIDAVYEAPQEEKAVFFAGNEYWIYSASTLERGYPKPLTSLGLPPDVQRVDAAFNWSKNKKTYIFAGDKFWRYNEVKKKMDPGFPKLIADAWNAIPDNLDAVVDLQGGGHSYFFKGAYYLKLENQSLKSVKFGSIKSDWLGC
Protocol: as §1, §2, §3, §4

[9] = target: T7, MMP-2; conditions: isolated enzyme, fluorogenic substrate FS-1, literature value; cited from earlier work
[10] = target: MMP-14 (Homo sapiens, UniProt P50281); conditions: isolated enzyme, fluorogenic substrate FS-1, literature value; cited from earlier work

T2 sequence (P14780 107-707 limits assumed): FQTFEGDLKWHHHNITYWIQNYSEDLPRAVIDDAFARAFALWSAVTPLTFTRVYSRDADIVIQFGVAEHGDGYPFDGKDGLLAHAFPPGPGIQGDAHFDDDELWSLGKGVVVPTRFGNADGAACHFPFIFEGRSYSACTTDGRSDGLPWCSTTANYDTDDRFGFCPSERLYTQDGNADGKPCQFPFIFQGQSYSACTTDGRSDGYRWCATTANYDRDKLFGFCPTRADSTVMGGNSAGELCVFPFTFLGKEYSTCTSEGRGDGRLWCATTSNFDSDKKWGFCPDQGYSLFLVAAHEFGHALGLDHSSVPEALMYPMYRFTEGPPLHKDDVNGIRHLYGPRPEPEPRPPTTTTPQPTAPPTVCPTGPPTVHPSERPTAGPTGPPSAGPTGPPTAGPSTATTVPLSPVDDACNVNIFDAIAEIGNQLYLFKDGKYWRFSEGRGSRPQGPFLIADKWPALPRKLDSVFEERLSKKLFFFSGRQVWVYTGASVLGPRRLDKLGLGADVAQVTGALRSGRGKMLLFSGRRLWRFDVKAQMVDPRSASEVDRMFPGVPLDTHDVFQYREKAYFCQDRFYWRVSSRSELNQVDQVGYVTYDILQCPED
T5 sequence (P08254 100-477): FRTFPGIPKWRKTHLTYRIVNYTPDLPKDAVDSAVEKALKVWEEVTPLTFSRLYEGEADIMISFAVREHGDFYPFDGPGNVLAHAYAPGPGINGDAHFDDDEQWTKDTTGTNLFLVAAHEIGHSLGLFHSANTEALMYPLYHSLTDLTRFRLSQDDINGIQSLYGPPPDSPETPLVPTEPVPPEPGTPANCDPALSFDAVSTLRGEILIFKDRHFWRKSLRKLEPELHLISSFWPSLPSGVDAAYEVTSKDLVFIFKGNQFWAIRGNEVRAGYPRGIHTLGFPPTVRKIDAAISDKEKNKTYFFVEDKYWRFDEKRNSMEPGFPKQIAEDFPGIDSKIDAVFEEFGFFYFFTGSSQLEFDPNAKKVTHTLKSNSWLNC
T4 sequence (P39900 106-470): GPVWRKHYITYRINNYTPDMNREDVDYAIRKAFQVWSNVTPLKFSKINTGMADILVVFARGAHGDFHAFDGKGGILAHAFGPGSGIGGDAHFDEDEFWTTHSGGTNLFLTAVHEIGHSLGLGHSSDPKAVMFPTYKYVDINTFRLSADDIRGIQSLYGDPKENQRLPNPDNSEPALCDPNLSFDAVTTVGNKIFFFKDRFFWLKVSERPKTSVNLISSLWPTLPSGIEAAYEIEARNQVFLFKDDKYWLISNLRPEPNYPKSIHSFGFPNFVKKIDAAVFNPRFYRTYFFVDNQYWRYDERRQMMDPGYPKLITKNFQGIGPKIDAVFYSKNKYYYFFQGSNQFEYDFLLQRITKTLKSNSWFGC
T3 sequence (P51512 120-292 limits assumed): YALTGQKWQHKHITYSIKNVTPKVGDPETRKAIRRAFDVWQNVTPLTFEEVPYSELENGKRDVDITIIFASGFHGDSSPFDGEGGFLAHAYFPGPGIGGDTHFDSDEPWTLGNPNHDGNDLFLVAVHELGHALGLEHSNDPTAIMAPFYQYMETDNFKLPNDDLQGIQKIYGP
T1 sequence (P22894 101-467): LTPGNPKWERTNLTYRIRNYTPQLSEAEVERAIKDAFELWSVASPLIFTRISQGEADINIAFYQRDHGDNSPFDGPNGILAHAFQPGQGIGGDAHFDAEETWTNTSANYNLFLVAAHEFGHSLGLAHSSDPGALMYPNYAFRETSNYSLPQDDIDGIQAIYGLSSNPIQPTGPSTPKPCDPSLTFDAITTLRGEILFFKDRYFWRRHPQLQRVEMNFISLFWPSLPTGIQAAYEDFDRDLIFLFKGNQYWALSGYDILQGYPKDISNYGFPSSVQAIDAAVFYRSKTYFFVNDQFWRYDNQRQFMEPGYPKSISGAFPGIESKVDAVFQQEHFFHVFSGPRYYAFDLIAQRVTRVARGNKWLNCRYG

Row | SMILES | IC50 [1] [µM] | IC50 [2] [µM] | IC50 [3] [µM] | IC50 [4] [µM] | IC50 [5] [µM] | IC50 [6] [µM] | IC50 [7] [µM] | IC50 [8] [µM] | IC50 [9] [µM] | IC50 [10] [µM]
1 | COc1ccc(-c2ccc(S(=O)(=O)N(OCCOCCN3CCNCC3)[C@H](CCNC(=O)OCc3ccccc3)C(=O)NO)cc2)cc1 [1j] | 0.0032 ± 0.0002 | 0.0017 ± 0.00014 | 0.01 ± 0.001 | 0.0004 ± 5e-05 | 0.039 ± 0.0033 |  |  |  |  | 
2 | CCC(=O)N1CCN(CCOCCON([C@H](CCNC(=O)OCc2ccccc2)C(=O)NO)S(=O)(=O)c2ccc(-c3ccc(OC)cc3)cc2)CC1 [1k] |  | 0.187 ± 0.011 | 1.26 ± 0.059 | 0.022 ± 0.004 | 1.99 ± 0.09 | 0.0244 ± 0.0025 | 1.7 ± 0.305 | 0.0479 ± 0.0049 |  | 
3 | CC[N+]1=C(/C=C/C=C/C=C2/N(CCCCCC(=O)NCC[C@H](C(=O)NO)N(OC(C)C)S(=O)(=O)c3ccc(-c4ccc(OC)cc4)cc3)c3ccc4c(S(=O)(=O)O)cc(S(=O)(=O)O)cc4c3C2(C)C)C(C)(C)c2c1ccc1c(S(=O)(=O)[O-])cc(S(=O)(=O)O)cc21 [Compound 5] |  |  |  |  |  | 0.082 ± 0.013 |  | 0.056 ± 0.008 |  | 
4 | CC[N+]1=C(/C=C/C=C/C=C2\N(CCCCCC(=O)N3CCN(CCOCCON([C@H](CCNC(=O)OCc4ccccc4)C(=O)O)S(=O)(=O)c4ccc(-c5ccc(OC)cc5)cc4)CC3)c3ccc4c(S(=O)(=O)[O-])cc(S(=O)(=O)O)cc4c3C2(C)C)C(C)(C)c2c1ccc1c(S(=O)(=O)O)cc(S(=O)(=O)O)cc21 [Compound 6a] |  |  |  |  |  | 0.05 ± 0.0043 |  | 0.0735 ± 0.0057 |  | 
5 | CC[N+]1=C(/C=C/C=C/C=C2/N(CCCCCC(=O)N3CCN(CCOCCON([C@H](CCNC(=O)OCc4ccccc4)C(=O)NO)S(=O)(=O)c4ccc(-c5ccc(OC)cc5)cc4)CC3)c3ccc4c(S(=O)(=O)O)cc(S(=O)(=O)O)cc4c3C2(C)C)C(C)(C)c2c1ccc1c(S(=O)(=O)[O-])cc(S(=O)(=O)O)cc21 [Compound 6b] | 0.0065 ± 0.0006 | 0.0033 ± 0.0001 | 0.03 ± 0.0023 | 0.00067 ± 6e-05 | 0.053 ± 0.0045 | 0.00017 ± 2e-05 | 0.067 ± 0.0034 | 0.0006 ± 6e-05 |  | 
6 | CC(C)ON(C(CCNC(=O)OCc1ccccc1)C(=O)NO)S(=O)(=O)c1ccc(-c2ccccc2)cc1 (centres unmarked) [compound (5b)] |  |  |  |  |  |  |  |  | 0.00041 | 0.0077
